Key:
[1] = Water solubility (stated property); type: physicochemical
[2] = Pharmacokinetics of WN-compounds in mice (brain and serum concentration, HPLC); type: in vivo, mouse (C57BL/6N)
Description: Wild type mice at 8 weeks (male, C57BL/6N) were used for the analysis of CPN-9, WN1303R, WN1312, WN1315 and WN1316 pharmacokinetics. CPN-9 was suspended in 0.5% carboxymethyl cellulose (CMC)-Na (carmellose sodium, Maruishi Pharmaceutical Co., Ltd.), while WN1303R, WN1312 and WN1316 were dissolved in Milli-Q purified water (MQ water) and WN1315 was dissolved in 0.25 N HCl. CPN-9 (100 mg/kg body weight) and the four WN-compounds (50 mg/kg body weight) were injected intragastrically (i.g.). After 15 min, 30 min, 1 h, 2 h, 4 h, 6 h, and 8 h, blood was collected from heart of each mouse anesthetized with 2% isoflurane by inhalation or 4% halothane in a mixture of N2O/O2 (70∶30). Mice were thereafter perfused transcardially with physiological saline containing 10% heparin under anesthesia, and the whole brain was removed. Each blood sample was centrifuged at 1,000×g for 10 min at 4°C, and the serum fraction was collected. The brain was frozen in liquid nitrogen, and was cryopreserved until use.
We mixed serum with deproteinization buffer (0.05 M H2SO4, 2.5 M K2CO3, and […]), and collected the organic layer after centrifugation at 1,500×g for 10 min. The organic layer was mixed with 0.05 M H2SO4, and then, after centrifugation at 1,500×g for 10 min, the water layer was collected. After the addition of methanol, each serum derived sample was subjected to HPLC.
Mouse whole brain was homogenized with acetonitrile and left at −80°C for 10 min. The supernatant was collected after centrifugation at 10,000×g for 10 min at 4°C and was dried under vacuum. The dried sample was re-dissolved in methanol and mixed with two volumes of 10 mM phosphate buffer (pH7.0), after which the supernatant was collected by centrifugation at 10,000×g for 10 min at 4°C and then left at −80°C for 10 min. To further remove debris, the supernatant was filtered (0.45 µm filter), centrifuged (at 10,000×g for 10 min at 4°C), filtered (0.22 µm filter) and finally centrifuged again. Each sample solution from brain was subjected to HPLC.
The concentrations of CPN-9 and WN1316 in the serum and brain samples were determined by HPLC on a CAPCELL PAK C18 column (SHISEIDO) with 50% acetonitrile (CPN-9), 40% acetonitrile (WN1316) or 45% acetonitrile (WN1303R, WN1312, and WN1315) in 10 mM phosphate buffer (pH 7.0).

[3] = set-up: method as in PMID 23000247; conditions: cited from earlier work
[4] = C57BL/6N mice, intragastric, 100 mg/kg in 0.5% CMC-Na, n = 3, mean ± SD

Structure (SMILES): Cc1cc(C)c(OCC(=O)Nc2nc(-c3ccccn3)cs2)c(C)c1 [CPN-9, N-(4-(2-pyridyl)(1,3-thiazol-2-yl))-2-(2,4,6-trimethylphenoxy) acetamide, reference compound]
- water solubility (in words) [1]: hardly water soluble
- AUC0–8: Brain [2, 4]: 1.0±1.3 µg⋅h/g
- AUC0–8: Serum [2, 4]: 5.9±0.8 µg⋅h/ml
- BBB permeability (in words) ([2]; mouse, in vivo): very poor blood-brain-barrier (BBB) permeability
- toxicity (in words) [3]: considerable toxicity

— PMC3909264, “A Novel Acylaminoimidazole Derivative, WN1316, Alleviates Disease Progression via Suppression of Glial Inflammation in ALS Mouse Model” (PLoS ONE, 2014)
